From patent US11964984B2, “TXNIP-TRX complex inhibitors and methods of using the same” (CITY OF HOPE, priority 2020, dated 2024) come the findings set out here.

In one assay the test system is TXNIP mRNA. Briefly: TXNIP expression in murine blood after oral dosing (RT-PCR). As to conditions: 90 mg/kg oral gavage daily for five days, 96 hours after last dose. Type of assay: in vivo, C57BL/6 mice. On the procedure: FIG. 16. Compounds C30 and C38 reduce TXNIP expression in murine blood. Twelve male C57BL/6 mice were divided into three groups (vehicle, C30 and C38). They received 90 mg/kg of the indicated compounds via oral gavage daily for five days. Animals were humanely euthanized 96 hours after administration of the last drug dose. Blood samples were collected for total RNA extraction. RT-PCR was performed in triplicate and data shown are the mean±SEM. Statistical analysis was performed using one-way ANOVA: *p<0.001.
The effects of compounds C30 and C38 at single high dose of 90 mg/kg. Twelve male mice were divided into three groups: 1) Control group (4 mice), 2) compound C30 (4 mice) and 3) compound C38 (4 mice). By oral gavage, animals were given 90 mg/kg of agent daily for 5 consecutive days (vehicle: 30% Solutol in saline). Mice were weighed every day during the treatment period. They were humanely euthanized 96 hours after the last dose. Tissues including the pancreas, liver and kidneys were collected (snap frozen in liquid nitrogen) for RNA extraction. […] Those given compound C30 lost ˜5% of body weight (FIG. 15).
Expression of TXNIP in vivo in treated mice.

A further assay addresses T1, TXNIP (Homo sapiens, UniProt Q9H3M7).
T1 construct: THP1 cells were lysed with extract buffer; endogenous in cells; host or cells: THP1 cells cultured in RPMI 1640 under 25 mM glucose for 72 hours; cell extracts
T1 sequence (Q9H3M7 1-391): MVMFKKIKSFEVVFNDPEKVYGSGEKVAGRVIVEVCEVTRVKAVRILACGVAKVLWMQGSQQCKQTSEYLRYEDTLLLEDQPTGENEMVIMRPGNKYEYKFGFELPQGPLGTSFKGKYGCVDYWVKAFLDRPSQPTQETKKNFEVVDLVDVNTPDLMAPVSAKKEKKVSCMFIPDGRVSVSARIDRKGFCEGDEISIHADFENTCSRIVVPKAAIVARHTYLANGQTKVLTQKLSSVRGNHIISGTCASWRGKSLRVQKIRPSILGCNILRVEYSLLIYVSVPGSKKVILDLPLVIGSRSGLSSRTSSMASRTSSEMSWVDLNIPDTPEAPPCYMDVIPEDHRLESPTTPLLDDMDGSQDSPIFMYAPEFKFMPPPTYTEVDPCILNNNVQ
Briefly: Drug affinity responsive target stability (DARTS) assay, THP1 cell extracts. Format: binding. As to conditions: THP-1 cell extracts, protease, aliquots at 7 minutes. On the procedure: FIG. 9. Treatment with C30 and C38 protects TXNIP from proteolysis in a DARTS assay. THP1 cell were cultured in RPMI 1640 medium under 25 mM glucose for 72 hours. Cell extracts were prepared. C30 and C38 were added at the indicated concentrations and protease was added except control lanes. Aliquots were withdrawn at 7 minutes and loaded on 10% SDS gels. Control: without protease.
Experimental testing of small molecules: We developed several different bench-based assays to perform rigorous and reproducible tests for the predicted hit molecules. These assays include testing direct binding to TXNIP as well as functional assays including under diabetic high glucose conditions. The assays are: (1) drug affinity responsive target stability test that tests the direct binding of the compounds. In this assay, when a compound binds to its target molecule, it can reduce the rate of its proteolytic digestion. (2) This assay looks for compounds that can interfere with the interaction between TXNIP and TRX in THP-1 monocytes treated with high glucose. TXNIP is highly expressed in cells treated with high glucose, and therefore would have high concentration of TXNIP/TRX complexes in the cell extract. Co-immunoprecipitation was done in these extracts through adding TRX antibody, and then the effects of compounds added were tested. […]

The next assay has as its system TNF-α mRNA. Briefly: TNF-α mRNA expression in murine RAW macrophages (RT-PCR). Format: cell-based, mouse. As to conditions: RAW264.7 cells, 25 mM glucose, 72 hours. As to the method: FIGS. 3A-3B. FIG. 3A: C30 and C38 inhibited TXNIP mRNA expression in murine RAW macrophages. RAW cells were cultured under 25 mM glucose with various concentration of C30 and C38 as indicated for 72 hours. Total RNA was prepared. RT-PCR was performed and data shown are the mean±SEM from triplicates. Statistical analysis was performed for each column vs. high glucose (HG) DMSO using one-way ANOVA: *p<0.0001. FIG. 3B: Treatment with C30 and C38 decreased TNF-α mRNA expression in murine RAW macrophages. RAW cells were cultured under 25 mM glucose with various concentration of C30 and C38 as indicated for 72 hours. Total RNA was prepared. RT-PCR was performed and data shown are the mean±SEM from triplicates. Statistical analysis was performed for each column vs. HG DMSO using one-way ANOVA: *p<0.0001.
Treatment of murine RAW macrophages with lead compounds C30 and C38 decreased TXNIP and TNF-α. We have also tested the effects of the lead compound in murine RAW264.7 (RAW) macrophages. As in human THP1 cells, C30 and C38 inhibited TXNIP and TNF-α mRNA expression in mouse RAW cells (FIGS. 3A-3B) showing they are also effective in mouse cells. […]
RNA extraction and quantitative RT-PCR. […] Diluted cDNA was quantified using real-time PCR performed with Power SYBR Green qPCR MasterMix (Applied Biosystem) and 7500 real-time PCR system (Applied Biosystems). […]

The structures appear in SMILES notation.

For `COc1cc(N2CC[C@@H](c3ccc4ccccc4c3)[C@H](O)C2)nc(N)n1` [Compound C30], in the assay with TXNIP mRNA, the “RNA expression level of TXNIP in blood” value was “reduced”. Besides, the “concentration from which TXNIP is protected from proteolysis” value at TXNIP was ~0.5 µM. Moreover, in the assay with TNF-α mRNA, the “TNF-α mRNA expression” value is “inhibited”.

With `c1ccc(CCNc2ncnc3c2oc2ccccc23)cc1` [Compound C38], in the assay on TXNIP mRNA, the “RNA expression level of TXNIP in blood” value is “reduced”. On TXNIP, the “concentration from which TXNIP is protected from proteolysis” value was ~0.5 µM. Besides, the “TNF-α mRNA expression” value with TNF-α mRNA is on record as “inhibited”.
